Measured values: US11718622B2, “Heterocyclic adenosine receptor antagonists” (Exelixis, Inc., priority 2020, dated 2023)

Columns and labels:
[1] = target: Adenosine A2B (ADORA2B) receptor (Homo sapiens (Human), UniProt P29275); experiment: ADORA2B Receptor Binding Assay; conditions: radioligand binding, membrane stock
How it was run: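 Radioligand competition binding on human A2B receptor membranes, 1 h at room temperature, then filtration through BSA-presoaked GF/C filters and ³H counting by scintillation. Inhibition expressed as % of high control after background subtraction.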

[2] = target: Adenosine A2a (ADORA2A) receptor (Homo sapiens (Human), UniProt P29274); experiment: ADORA2A Receptor Binding Assay; conditions: radioligand binding, membrane stock
How it was run: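 Test compounds incubated with A2a receptor membranes and a ³H-labelled radioligand for 2 hours at room temperature, then filtered through PEI-presoaked GF/C plates and washed. Filter-bound ³H counted by scintillation; % inhibition calculated from background-subtracted signal relative to high control.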

Adenosine A2B (ADORA2B) receptor, sequence (P29275 whole entry): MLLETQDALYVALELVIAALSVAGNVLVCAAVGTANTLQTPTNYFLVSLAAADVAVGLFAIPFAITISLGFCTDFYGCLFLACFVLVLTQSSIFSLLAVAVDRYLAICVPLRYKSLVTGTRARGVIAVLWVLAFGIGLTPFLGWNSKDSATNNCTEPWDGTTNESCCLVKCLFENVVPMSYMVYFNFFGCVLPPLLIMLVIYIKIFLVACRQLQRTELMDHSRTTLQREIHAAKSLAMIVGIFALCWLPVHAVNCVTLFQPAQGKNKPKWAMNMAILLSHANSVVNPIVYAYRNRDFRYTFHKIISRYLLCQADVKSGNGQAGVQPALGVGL
Adenosine A2a (ADORA2A) receptor, sequence (P29274 whole entry): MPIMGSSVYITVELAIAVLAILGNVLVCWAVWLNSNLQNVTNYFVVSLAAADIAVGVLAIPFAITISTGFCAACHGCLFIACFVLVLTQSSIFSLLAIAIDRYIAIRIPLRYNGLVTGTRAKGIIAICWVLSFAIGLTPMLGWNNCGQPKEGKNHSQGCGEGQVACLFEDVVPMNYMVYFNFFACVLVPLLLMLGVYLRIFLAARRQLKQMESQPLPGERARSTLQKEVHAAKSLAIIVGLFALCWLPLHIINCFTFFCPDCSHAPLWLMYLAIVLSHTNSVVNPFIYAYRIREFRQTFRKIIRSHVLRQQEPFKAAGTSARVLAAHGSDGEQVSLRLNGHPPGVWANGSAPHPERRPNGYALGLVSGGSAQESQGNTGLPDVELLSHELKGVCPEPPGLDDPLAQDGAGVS

SMILES	IC50 [1] [nM]	IC50 [2] [nM]
Cc1ccc(-c2nc(NC(=O)C3CC3)cn3cc(CO)nc23)o1 [Compound 209, N-[2-(hydroxymethyl)-8-(5-methylfuran-2-yl)imidazo[1,2-a]pyrazin-6-yl]cyclopropanecarboxamide]	10 to 100	< 10
Cc1ccc(-c2nc(NC(=O)C3CC3)cn3cc(CF)nc23)o1 [Compound 210, N-[2-(fluoromethyl)-8-(5-methylfuran-2-yl)imidazo[1,2-a]pyrazin-6-yl]cyclopropanecarboxamide]	10 to 100	< 10
CC(=O)Nc1cn2cc(C)nc2c(-c2ccco2)n1 [Compound 211, N-[8-(furan-2-yl)-2-methylimidazo[1,2-a]pyrazin-6-yl]acetamide]	10 to 100	10 to 100
CC(C)c1cn2cc(NC(=O)C3CC3)nc(-c3ccco3)c2n1 [Compound 212, N-[8-(furan-2-yl)-2-propan-2-ylimidazo[1,2-a]pyrazin-6-yl]cyclopropanecarboxamide]	10 to 100	< 10
CC(C)c1cn2c(Cl)c(N)nc(-c3ccccc3)c2n1 [Compound 213, 5-chloro-8-phenyl-2-propan-2-ylimidazo[1,2-a]pyrazin-6-amine]	100 to 1000	10 to 100
Cc1ccc(-c2nc(N)c(Cl)n3cc(C)nc23)cc1 [Compound 214, 5-chloro-2-methyl-8-(4-methylphenyl)imidazo[1,2-a]pyrazin-6-amine]	100 to 1000	100 to 1000
Cc1ccc(-c2nc(NC(=O)C3CC3)cn3cc(C(C)C)nc23)o1 [Compound 215, N-[8-(5-methylfuran-2-yl)-2-propan-2-ylimidazo[1,2-a]pyrazin-6-yl]cyclopropanecarboxamide]	10 to 100	< 10
Cc1cn2c(Cl)c(N)nc(-c3ccccc3C)c2n1 [Compound 216, 5-chloro-2-methyl-8-(2-methylphenyl)imidazo[1,2-a]pyrazin-6-amine]	> 1000	> 1000
CNC(=O)Nc1cn2cc(C)nc2c(-c2ccco2)n1 [Compound 217, 1-[8-(furan-2-yl)-2-methylimidazo[1,2-a]pyrazin-6-yl]-3-methylurea]	10 to 100	10 to 100
COC(=O)Nc1cn2cc(C)nc2c(-c2ccco2)n1 [Compound 218, methyl N-[8-(furan-2-yl)-2-methylimidazo[1,2-a]pyrazin-6-yl]carbamate]	100 to 1000	10 to 100
CCOC(=O)Nc1cn2cc(C)nc2c(-c2ccco2)n1 [Compound 219, ethyl N-[8-(furan-2-yl)-2-methylimidazo[1,2-a]pyrazin-6-yl]carbamate]	100 to 1000	10 to 100
CCC(=O)Nc1cn2cc(C)nc2c(-c2ccco2)n1 [Compound 220, N-[8-(furan-2-yl)-2-methylimidazo[1,2-a]pyrazin-6-yl]propanamide]	10 to 100	< 10
Cc1cn2cc(NC(=O)C(F)F)nc(-c3ccco3)c2n1 [Compound 221, 2,2-difluoro-N-[8-(furan-2-yl)-2-methylimidazo[1,2-a]pyrazin-6-yl]acetamide]	10 to 100	< 10
CCCC(=O)Nc1cn2cc(C)nc2c(-c2ccco2)n1 [Compound 222, N-[8-(furan-2-yl)-2-methylimidazo[1,2-a]pyrazin-6-yl]butanamide]	100 to 1000	10 to 100
CCNC(=O)Nc1cn2cc(C)nc2c(-c2ccco2)n1 [Compound 223, 1-ethyl-3-[8-(furan-2-yl)-2-methylimidazo[1,2-a]pyrazin-6-yl]urea]	10 to 100	< 10
Cc1cn2cc(NS(C)(=O)=O)nc(-c3ccco3)c2n1 [Compound 224, N-[8-(furan-2-yl)-2-methylimidazo[1,2-a]pyrazin-6-yl]methanesulfonamide]	> 1000	100 to 1000
CCS(=O)(=O)Nc1cn2cc(C)nc2c(-c2ccco2)n1 [Compound 225, N-[8-(furan-2-yl)-2-methylimidazo[1,2-a]pyrazin-6-yl]ethanesulfonamide]	100 to 1000	100 to 1000
